{
  "source": "patent US4086220A",
  "about": "“Fragments of secretin” (G. D. Searle & Co., priority 1976, dated 1978)",
  "origin": "cited, not measured here",
  "details": "on a molar basis; parent molecule = intact secretin",
  "data": [
    {"substance": "Amino acid fragments of the molecule from position 1 to 14: Secretin fragment, positions 1 to 14 (containing the helical portion), reported in literature (Rayford et al.) (HSDGTFTSELSRLR; Secretin; UniProt P09683 28-41, looked up, fragment)", "values": [
      {"measurement": "lipolytic activity relative to that of the parent molecule", "value": "about 0.5%"}
    ]}
  ]
}
